Where a chain is given by its changes, count along the chain named.
Key:
rP2X4R N287A mutant = target: T1, rP2X4R N287A mutant (Rattus norvegicus, UniProt P51577, N287A); test: whole-cell patch clamp, HEK293T cells expressing mutant; type: cell-based
T1 construct: expressed in transfected cells; host or cells: HEK293T
T1 sequence (P51577 1-388 N287A): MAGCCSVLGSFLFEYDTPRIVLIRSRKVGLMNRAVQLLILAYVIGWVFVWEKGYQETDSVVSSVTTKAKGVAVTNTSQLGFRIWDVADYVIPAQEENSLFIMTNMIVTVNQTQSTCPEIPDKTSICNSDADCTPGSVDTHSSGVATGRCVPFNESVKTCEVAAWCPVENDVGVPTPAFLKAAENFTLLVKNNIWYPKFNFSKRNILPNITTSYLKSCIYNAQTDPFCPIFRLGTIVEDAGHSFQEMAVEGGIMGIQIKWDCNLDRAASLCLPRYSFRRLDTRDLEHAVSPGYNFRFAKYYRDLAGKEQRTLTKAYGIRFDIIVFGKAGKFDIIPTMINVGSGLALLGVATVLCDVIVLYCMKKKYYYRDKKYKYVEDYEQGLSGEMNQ

rP2X4R S289A mutant = target: T2, rP2X4R S289A mutant (Rattus norvegicus, UniProt P51577, S289A); test: as above; type: cell-based
T2 construct: expressed in transfected cells; host or cells: HEK293T
T2 sequence (P51577 1-388 S289A): T1 sequence (P51577 1-388 N287A) with A287N, S289A

[1] = 100 µM ATP 60 s, biexponential fit
[2] = contribution of τdes2, 100 µM ATP 60 s
[3] = decay after removal of 1 or 3 µM ATP, 3 µM IVM
[4] = naïve receptors, 2–5 s application
[5] = 3 µM IVM 4-6 min vs IVM-untreated

Compound	τdes1 (rP2X4R N287A mutant; [1]) [s]	τdes2 (rP2X4R N287A mutant; [1]) [s]	Imax (rP2X4R N287A mutant; 100–1000 µM ATP) [nA]	Imax+IVM (rP2X4R N287A mutant; ATP after 3 µM IVM 4-6 min) [nA]	A2 /(A1+A2) (rP2X4R N287A mutant; [2]) [%]	τoff +IVM (rP2X4R N287A mutant; [3]) [s]	EC50 (rP2X4R N287A mutant; [4]) [µM]	τdes (rP2X4R N287A mutant; weighted, 100 µM ATP 60 s) [s]	τdes1 (rP2X4R S289A mutant; [1]) [s]	τdes2 (rP2X4R S289A mutant; [1]) [s]	Imax (rP2X4R S289A mutant; 100–1000 µM ATP) [nA]	Imax+IVM (rP2X4R S289A mutant; ATP after 3 µM IVM 4-6 min) [nA]	A2 /(A1+A2) (rP2X4R S289A mutant; [2]) [%]	τoff +IVM (rP2X4R S289A mutant; [3]) [s]	EC50 (rP2X4R S289A mutant; [4]) [µM]	τdes (rP2X4R S289A mutant; weighted, 100 µM ATP 60 s) [s]	Fold incr. Imax (rP2X4R N287A mutant; [5]) [fold]	Fold incr. Imax (rP2X4R S289A mutant; [5]) [fold]
Nc1ncnc2c1ncn2[C@@H]1O[C@H](COP(=O)(O)OP(=O)(O)OP(=O)(O)O)[C@@H](O)[C@H]1O [ATP]	1.6 ± 0.1	10.2 ± 3.0	1.6 ±0.2	4.0 ± 0.6	75 ± 16	16 ± 2.5	3.2 ± 1	7.1 ± 0.5	0.9 ± 0.3	11.3 ± 0.6	1.4 ± 0.2	4.5 ± 1.1	56 ± 7	15 ± 1.1	3.6 ± 1.9	6.8 ± 1.0	–	–
CC[C@H](C)[C@H]1O[C@]2(CC[C@@H]1C)C[C@@H]1C[C@@H](C/C=C(\C)[C@@H](O[C@H]3C[C@H](OC)[C@@H](O[C@H]4C[C@H](OC)[C@@H](O)[C@H](C)O4)[C@H](C)O3)[C@@H](C)/C=C/C=C3\CO[C@@H]4[C@H](O)C(C)=C[C@@H](C(=O)O1)[C@]34O)O2 [IVM, ivermectin]	–	–	–	–	–	–	–	–	–	–	–	–	–	–	–	–	3.3 ± 0.4	3.2 ± 0.2

Reference: PMC4232510, “Identification of Functionally Important Residues of the Rat P2X4 Receptor by Alanine Scanning Mutagenesis of the Dorsal Fin and Left Flipper Domains” (PLoS ONE, 2014)
